Experimental data reported in US9580390B2, “Indazole compounds as kinase inhibitors and method of treating cancer with same” (University Health Network, priority 2011, dated 2017).

Key:
Format in all cases: cell-based
[1] = tested on: colon cancer cells (HCT116); experiment: Cancer cell line growth inhibition (SRB assay); details: Homo sapiens, HCT-116; HCT116 colon cancer cells, SRB assay; read-out: Cancer Cell Line GI50 Range HCT116
[2] = tested on: ovarian cancer cells (PA-1); experiment: Cancer cell line growth inhibition (SRB assay); details: PA-1 ovarian cancer cells, SRB assay; read-out: Cancer Cell Line GI50 Range PA-1
TICs (Colon 12) = experiment: Colon tumor-initiating cell growth inhibition (Alamar Blue); details: 216 h; colon TICs, 9 days, Alamar Blue; read-out: Tumor Initiating Cell GI50 Range Colon 12
TICs (Ovarian 2393A) = experiment: Ovarian tumor-initiating cell growth inhibition (Alamar Blue); details: 144 h; ovarian TICs, 6 days, Alamar Blue; read-out: Tumor Initiating Cell GI50 Range Ovarain 2393A

| Compound | GI50 [1] [nM] | GI50 [2] [nM] | GI50 (TICs (Colon 12)) [nM] | GI50 (TICs (Ovarian 2393A)) [nM] |
| --- | --- | --- | --- | --- |
| CC1(O)CCN(c2ccc(-c3n[nH]c4ccc(NC(=O)C(c5ccsc5)N5CCCC5)cc34)cc2)CC1 (centres unmarked) [Example A89, N-(3-(4-(4-hydroxy-4-methylpiperidin-1-yl)phenyl)-1H-indazol-5-yl)-2-(pyrrolidin-1-yl)-2-(thiophen-3-yl)acetamide] | < 100 | < 100 | 100 to 500 | 100 to 500 |
| CN1CCC(Oc2ccc(-c3n[nH]c4ccc(NC(=O)C(c5cccs5)N5CCCC5)cc34)cc2)CC1 (centres unmarked) [Example A91, N-(3-(4-((1-methylpiperidin-4-yl)oxy)phenyl)-1H-indazol-5-yl)-2-(pyrrolidin-1-yl)-2-(thiophen-2-yl)acetamide] | < 100 | < 100 | 100 to 500 | < 100 |
| COCCN1CCC(Oc2ccc(-c3n[nH]c4ccc(C(=O)NC(c5ccccc5)C5CC5)cc34)cc2)CC1 (centres unmarked) [Example A98, N-(cyclopropyl(phenyl)methyl)-3-(4-((1-(2-methoxyethyl)piperidin-4-yl)oxy)phenyl)-1H-indazole-5-carboxamide] | < 100 | < 100 | 100 to 500 | 100 to 500 |
| Cc1ccccc1C(NC(=O)c1ccc2[nH]nc(-c3ccc(OC4CCN(C)CC4)cc3)c2c1)C1CC1 (centres unmarked) [Example A132, N-(cyclopropyl(o-tolyl)methyl)-3-(4-((1-methylpiperidin-4-yl)oxy)phenyl)-1H-indazole-5-carboxamide] | < 100 | < 100 | < 100 | 100 to 500 |
| C[C@@H](NC(=O)c1ccc2[nH]nc(-c3ccc(OC4CCN(C)CC4)cc3)c2c1)c1ccccc1F [Example A134, (R)-N-(1-(2-fluorophenyl)ethyl)-3-(4-((1-methylpiperidin-4-yl)oxy)phenyl)-1H-indazole-5-carboxamide] | < 100 | 100 to 500 | 100 to 500 | > 500 |
| CC(C)C(NC(=O)c1ccc2[nH]nc(-c3ccc(OC4CCN(C)CC4)cc3)c2c1)c1ccccc1Cl (centres unmarked) [Example A144, N-(1-(2-chlorophenyl)-2-methylpropyl)-3-(4-((1-methylpiperidin-4-yl)oxy)phenyl)-1H-indazole-5-carboxamide] | < 100 | < 100 | < 100 | < 100 |
| CN1CCC(Oc2ccc(-c3n[nH]c4ccc(C(=O)NC(c5cccs5)C5CC5)cc34)cc2)CC1 (centres unmarked) [Example A147, N-(cyclopropyl(thiophen-2-yl)methyl)-3-(4-((1-methylpiperidin-4-yl)oxy)phenyl)-1H-indazole-5-carboxamide] | < 100 | < 100 | 100 to 500 | < 100 |
| COc1ccccc1C(NC(=O)c1ccc2[nH]nc(-c3ccc(OC4CCN(C)CC4)cc3)c2c1)C1CC1 (centres unmarked) [Example A151, N-(cyclopropyl(2-methoxyphenyl)methyl)-3-(4-((1-methylpiperidin-4-yl)oxy)phenyl)-1H-indazole-5-carboxamide] | < 100 | 100 to 500 | 100 to 500 | 100 to 500 |
| O=C(NC(c1ccccc1)C1CC1)c1ccc2[nH]nc(-c3ccc(OC4CCN(C5COC5)CC4)cc3)c2c1 (centres unmarked) [Example A157, N-(cyclopropyl(phenyl)methyl)-3-(4-((1-(oxetan-3-yl)piperidin-4-yl)oxy)phenyl)-1H-indazole-5-carboxamide] | 100 to 500 | 100 to 500 | 100 to 500 | 100 to 500 |
| O=CN1CCC(Oc2ccc(-c3n[nH]c4ccc(C(=O)NC(c5ccccn5)C5CC5)cc34)cc2)CC1 (centres unmarked) [Example A160, N-(cyclopropyl(pyridin-2-yl)methyl)-3-(4-((1-formylpiperidin-4-yl)oxy)phenyl)-1H-indazole-5-carboxamide] | < 100 | 100 to 500 | 100 to 500 | 100 to 500 |
| CN1CCC(Oc2ccc(-c3n[nH]c4ccc(C(=O)NC(c5ccccc5)C5CCCCC5)cc34)cc2)CC1 (centres unmarked) [Example A170, N-(cyclohexyl(phenyl)methyl)-3-(4-((1-methylpiperidin-4-yl)oxy)phenyl)-1H-indazole-5-carboxamide] | > 500 | > 500 | > 500 | > 500 |
| O=C(NC(c1ccccn1)C1CC1)c1ccc2[nH]nc(-c3ccc(OC4CCN(C5COC5)CC4)cc3)c2c1 (centres unmarked) [Example A171, N-(cyclopropyl(pyridin-2-yl)methyl)-3-(4-((1-(oxetan-3-yl)piperidin-4-yl)oxy)phenyl)-1H-indazole-5-carboxamide] | < 100 | < 100 | 100 to 500 | < 100 |
| O=C(Nc1ccc2[nH]nc(-c3ccc(N4CCOCC4)cc3)c2c1)C(c1ccsc1)N1CCC1 (centres unmarked) [Example A172, 2-(azetidin-1-yl)-N-(3-(4-morpholinophenyl)-1H-indazol-5-yl)-2-(thiophen-3-yl)acetamide] | < 100 | < 100 | < 100 | < 100 |
| COC[C@@H](NC(=O)c1ccc2[nH]nc(-c3ccc(OC4CCN(C)CC4)cc3)c2c1)c1ccccc1 [Example A173, (S)-N-(2-methoxy-1-phenylethyl)-3-(4-((1-methylpiperidin-4-yl)oxy)phenyl)-5-carboxamide] | 100 to 500 | 100 to 500 | > 500 | 100 to 500 |
| CC[C@@H](NC(=O)c1ccc2[nH]nc(-c3ccc(OC4CCN(C)CC4)cc3)c2c1)c1cccc(OC)c1 [Example A174, (R)-N-(1-(3-methoxyphenyl)propyl)-3-(4-((1-methylpiperidin-4-yl)oxy)phenyl)-1H-indazole-5-carboxamide] | < 100 | 100 to 500 | 100 to 500 | 100 to 500 |
| CN1CCC(Oc2ccc(-c3n[nH]c4ccc(C(=O)NC(c5ccccc5)C5CCOCC5)cc34)cc2)CC1 (centres unmarked) [Example A177, 3-(4-((1-methylpiperidin-4-yl)oxy)phenyl)-N-(phenyl(tetrahydro-2H-pyran-4-yl)methyl)-1H-indazole-5-carboxamide] | < 100 | 100 to 500 | 100 to 500 | 100 to 500 |
| CN1[C@@H]2CC[C@H]1C[C@@H](Oc1ccc(-c3n[nH]c4ccc(C(=O)NC(c5ccccc5)C5CC5)cc34)cc1)C2 (some centres unmarked) [Example A178] | < 100 | < 100 | 100 to 500 | 100 to 500 |

Second part, the compound after the results:

| GI50 [1] [nM] | GI50 [2] [nM] | GI50 (TICs (Colon 12)) [nM] | GI50 (TICs (Ovarian 2393A)) [nM] | Compound |
| --- | --- | --- | --- | --- |
| < 100 | 100 to 500 | 100 to 500 | 100 to 500 | CC(C)(O)C1CCN(c2ccc(-c3n[nH]c4ccc(C(=O)NC(c5ccccn5)C5CC5)cc34)cc2)CC1 (centres unmarked) [Example A180, N-(cyclopropyl(pyridin-2-yl)methyl)-3-(4-(4-(2-hydroxypropan-2-yl)piperidin-1-yl)phenyl)-1H-indazole-5-carboxamide] |
| < 100 | < 100 | < 100 | < 100 | O=CN1CCC(Oc2ccc(-c3n[nH]c4ccc(C(=O)NC(c5ccccc5F)C5CC5)cc34)cc2)CC1 (centres unmarked) [Example A182] |
| 100 to 500 | 100 to 500 | > 500 | > 500 | CN1CCC(Oc2ccc(-c3n[nH]c4ccc(NC(=O)C(OC5CCCC5)c5ccccc5)cc34)cc2)CC1 (centres unmarked) [Example A183, 2-(cyclopentyloxy)-N-(3-(4-((1-methylpiperidin-4-yl)oxy)phenyl)-1H-indazol-5-yl)-2-phenylacetamide] |
| 100 to 500 | 100 to 500 | 100 to 500 | 100 to 500 | O=C(Nc1ccc2[nH]nc(-c3ccc(OC4CCN(C5COC5)CC4)cc3)c2c1)C(c1ccccc1)C1CC1 (centres unmarked) [Example A185, 2-cyclopropyl-N-(3-(4-((1-(oxetan-3-yl)piperidin-4-yl)oxy)phenyl)-1H-indazol-5-yl)-2-phenylacetamide] |
| < 100 | < 100 | > 500 | > 500 | O=C(Nc1ccc2[nH]nc(-c3ccc(OC4CN(C5COC5)C4)cc3)c2c1)C(c1ccsc1)N1CCCC1 (centres unmarked) [Example A189, N-(3-(4-((1-(oxetan-3-yl)azetidin-3-yl)oxy)phenyl)-1H-indazol-5-yl)-2-(pyrrolidin-1-yl)-2-(thiophen-3-yl)acetamide] |
| 100 to 500 | 100 to 500 | 100 to 500 | 100 to 500 | O=C(NC(c1ccccc1)C1CC1)c1ccc2[nH]nc(-c3ccc(OC4CN(C5COC5)C4)cc3)c2c1 (centres unmarked) [Example A190, N-(cyclopropyl(phenyl)methyl)-3-(4-((1-(oxetan-3-yl)azetidin-3-yl)oxy)phenyl)-1H-indazole-5-carboxamide] |
| < 100 | < 100 | 100 to 500 | < 100 | CN1CCC(Oc2ccc(-c3n[nH]c4ccc(NC(=O)C(c5ccsc5)N5CCC5)cc34)cc2)CC1 (centres unmarked) [Example A191, 2-(azetidin-1-yl)-N-(3-(4-((1-methylpiperidin-4-yl)oxy)phenyl)-1H-indazol-5-yl)-2-(thiophen-3-yl)acetamide] |
| < 100 | < 100 | < 100 | < 100 | O=C(N[C@H](c1ccccn1)C1CC1)c1ccc2[nH]nc(-c3ccc(OC4CCN(C5COC5)CC4)cc3)c2c1 [Example A197, (S)-N-(cyclopropyl(pyridin-2-yl)methyl)-3-(4-((1-(oxetan-3-yl)piperidin-4-yl)oxy)phenyl)-1H-indazole-5-carboxamide] |
| < 100 | 100 to 500 | 100 to 500 | 100 to 500 | CN1CCC(Oc2ccc(-c3n[nH]c4ccc(C(=O)NC(c5ccccn5)C5CC5)cc34)cc2Cl)CC1 (centres unmarked) [Example A198, 3-(3-chloro-4-((1-methylpiperidin-4-yl)oxy)phenyl)-N-(cyclopropyl(pyridin-2-yl)methyl)-1H-indazole-5-carboxamide] |
